Test results from PubChem BioAssay (NCI).
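Grown in 96-well plates, cells were treated for 48 hours with each compound at five concentrations. Insufficient inhibition: endpoint recorded as highest concentration tested. The concentration for 50% growth inhibition is given as GI50. TGI: concentration producing complete growth inhibition.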

Legend:
Assay in all cases: inhibition of tumour cell growth, NCI panel, 48 h
[1] = system: DU-145 prostate
[2] = system: T-47D breast
[3] = system: COLO 205 colon
[4] = system: HCC-2998 colon
[5] = system: HS 578T breast
[6] = system: EKVX NSCLC
[7] = system: OVCAR-8 ovarian
[8] = system: KM12 colon
[9] = system: SF-268 CNS
[10] = system: CAKI-1 renal
[11] = system: SN12C renal
[12] = system: SR leukemia
[13] = system: SK-MEL-28 melanoma
[14] = system: A549 NSCLC
[15] = system: RPMI-8226 leukemia
[16] = system: SK-MEL-2 melanoma
[17] = system: SK-OV-3 ovarian
[18] = system: NCI-H226 lung
[19] = system: UACC-257 melanoma
[20] = system: U251 CNS
[21] = system: UO-31 renal
[22] = system: HT29 colon
[23] = system: HL-60(TB) leukemia
[24] = system: SNB-75 CNS
[25] = system: HCT-15 colon
[26] = system: HCT-116 colon
[27] = system: HOP-62 NSCLC
[28] = system: A498 renal
[29] = system: NCI-H460 lung
[30] = system: SW-620 colon
[31] = system: UACC-62 melanoma
[32] = system: MALME-3M melanoma
[33] = system: SNB-19 CNS
[34] = system: IGROV1 ovarian
[35] = system: K-562 leukemia
[36] = system: LOX IMVI melanoma
[37] = system: NCI/ADR-RES ovarian
[38] = system: MDA-MB-231 breast
[39] = system: PC-3 prostate
[40] = system: M14 melanoma
[41] = system: OVCAR-3 ovarian
[42] = system: BT-549 breast
[43] = system: OVCAR-4 ovarian
[44] = system: MCF7 breast
[45] = system: NCI-H23 lung
[46] = system: 786-0 renal
[47] = system: OVCAR-5 ovarian
[48] = system: RXF 393 renal
[49] = system: HOP-92 NSCLC
[50] = system: MDA-MB-435
[51] = system: MOLT-4 leukemia
[52] = system: TK-10 renal
[53] = system: SF-539 CNS
[54] = system: ACHN renal
[55] = system: SF-295 CNS
[56] = system: SK-MEL-5 melanoma

COc1cccc(-c2nn(-c3ccccc3)cc2-c2ccnc(NCCCNC(=O)Nc3ccc(Cl)c(Cl)c3)c2)c1
GI50 [1]: 5.47 µM
TGI [1]: 23 µM
GI50 [2]: 2.41 µM
TGI [2]: 11.4 µM
GI50 [3]: 1.87 µM
TGI [3]: 3.82 µM
GI50 [4]: 2.17 µM
TGI [4]: 4.22 µM
GI50 [5]: 2.35 µM
TGI [5]: 7.53 µM
GI50 [6]: 3.51 µM
TGI [6]: 17.5 µM
GI50 [7]: 3.22 µM
TGI [7]: 13.4 µM
GI50 [8]: 2.75 µM
TGI [8]: 11.3 µM
GI50 [9]: 3.32 µM
TGI [9]: 13.9 µM
GI50 [10]: 3.16 µM
TGI [10]: 15 µM
GI50 [11]: 5.73 µM
TGI [11]: 25 µM
GI50 [12]: 1.73 µM
TGI [12]: 4.62 µM
GI50 [13]: 1.93 µM
TGI [13]: 4.16 µM
GI50 [14]: 3.79 µM
TGI [14]: 13.4 µM
GI50 [15]: 2.13 µM
TGI [15]: 5.37 µM
GI50 [16]: 1.92 µM
TGI [16]: 4.07 µM
GI50 [17]: 4.92 µM
TGI [17]: 18.6 µM
GI50 [18]: 5.61 µM
TGI [18]: 41.6 µM
GI50 [19]: 2.05 µM
TGI [19]: 5.38 µM
GI50 [20]: 3.1 µM
TGI [20]: 11.7 µM
GI50 [21]: 1.78 µM
TGI [21]: 5.65 µM
GI50 [22]: 2.55 µM
TGI [22]: 5.19 µM
GI50 [23]: 2.51 µM
TGI [23]: 5.81 µM
GI50 [24]: 2.52 µM
TGI [24]: 19.2 µM
GI50 [25]: 2.4 µM
TGI [25]: 6.66 µM
GI50 [26]: 2.33 µM
TGI [26]: 5.75 µM
GI50 [27]: 3.23 µM
TGI [27]: 8.88 µM
GI50 [28]: 2.15 µM
TGI [28]: 8.08 µM
GI50 [29]: 3.76 µM
TGI [29]: 14.7 µM
GI50 [30]: 3.02 µM
TGI [30]: 10.1 µM
GI50 [31]: 1.91 µM
TGI [31]: 4 µM
GI50 [32]: 1.86 µM
TGI [32]: 3.9 µM
GI50 [33]: 4.01 µM
TGI [33]: 25.6 µM
GI50 [34]: 4.24 µM
TGI [34]: 19.4 µM
GI50 [35]: 2.38 µM
TGI [35]: 5.33 µM
GI50 [36]: 1.64 µM
TGI [36]: 3.03 µM
GI50 [37]: 2.19 µM
TGI [37]: 5.39 µM
GI50 [38]: 1.97 µM
TGI [38]: 5.03 µM
GI50 [39]: 3.96 µM
TGI [39]: 22.4 µM
GI50 [40]: 1.97 µM
TGI [40]: 4.45 µM
GI50 [41]: 4.57 µM
TGI [41]: 17.3 µM
GI50 [42]: 3.2 µM
TGI [42]: 11.2 µM
GI50 [43]: 3.55 µM
TGI [43]: 18.1 µM
GI50 [44]: 1.94 µM
TGI [44]: 3.71 µM
GI50 [45]: 3.16 µM
TGI [45]: 13.9 µM
GI50 [46]: 1.82 µM
TGI [46]: 3.97 µM
GI50 [47]: 3.53 µM
TGI [47]: 25.4 µM
GI50 [48]: 1.81 µM
TGI [48]: 4.87 µM
GI50 [49]: 2.32 µM
TGI [49]: 7.68 µM
GI50 [50]: 2.01 µM
TGI [50]: 4.82 µM
GI50 [51]: 1.95 µM
TGI [51]: 5.85 µM
GI50 [52]: 4.51 µM
TGI [52]: 17.1 µM
GI50 [53]: 2.25 µM
TGI [53]: 5.29 µM
GI50 [54]: 4.23 µM
TGI [54]: 22.4 µM
GI50 [55]: 2.38 µM
TGI [55]: 6.43 µM
GI50 [56]: 1.75 µM
TGI [56]: 3.32 µM
